The test system of this assay is Salmonella. The experiment in a line: Time-release formulation compared to copper sulfate alone against Salmonella cells in vitro. In kind it is cell-based. As to conditions: after application (FIG. 3).

The results in this text go back to US20260000708A1, “Copper Hydrogel Beads as a Diet Supplement” (Texas Tech University System, priority 2021, published 2026).

`O=S(=O)([O-])[O-].[Cu+2]` [copper sulfate]: the “Duration of effectiveness against Salmonella” value is “only effective for a short time”.
